According to paper PMC2359919, “Molecular targeting of retinoic acid metabolism in neuroblastoma: the role of the CYP26 inhibitor R116010 in vitro and in vivo” (British Journal of Cancer, 2007):

Test system: CYP26A1
Assay: CYP26A1 expression in SH-SY5Y xenograft tumours
Format: in vivo, CD-1 nude mice
Experimental: All in vivo experiments were approved by the relevant institutional animal welfare committees, and performed according to national law. Female athymic nude mice (CD-1 nu/nu, Charles River) used for antitumour studies were maintained and handled in isolators, under specific pathogen-free conditions, at 24°C with a 12 h light, 12 h dark cycle. Tumours were generated by implantation of SH-SY5Y cells subcutaneously (s.c.) into one flank of CD-1 nude mice (1 × 10^7 cells per animal).
Treatments began when the tumours were between 7 and 10 mm in length and breadth. Retinoids and R116010 were initially dissolved in DMSO before 10- or 20-fold dilutions in PBS, respectively. For pharmacokinetic studies, the animals were dosed with ATRA or 13cisRA (each 100 mg kg^−1) orally for 0.5, 2 and 6 h. […]
RNA was reverse-transcribed using Promega's Reverse Transcription System according to the manufacturer's instructions, using random hexamer primers. […] As internal standard, β-actin was measured simultaneously using the endogenous control assay provided by Applied Biosystems. […] Standard curves were generated from serial dilutions of cDNA prepared from cells treated with ATRA (1 μM) and the data were analysed using the GeneAmp Sequence Detection System software. CYP26C1 expression was analysed as described previously ([Taimi et al, 2004]).

SMILES: C[C@@H]([C@H](c1ccc(Nc2nc3ccccc3s2)cc1)n1ccnc1)N(C)C [R116010]
- Increase in CYP26A1 expression in tumours (13cisRA with two doses of R116010 at 2.5 mg kg^−1 vs 13cisRA alone, individual animals, data not shown): 4- to 20 fold
- Effect on CYP26A1 expression in tumours (R116010 prior ATRA): not significantly different
